Experimental data taken from patent US10167262B2, “Herbicidal substituted 3-arylpyrazoles” (FMC CORPORATION, priority 2014, dated 2019).
Read-outs that look alike come from different tables or passages of the source.

What was measured:
Assay in all cases: Test C pre-/postemergence greenhouse test, plant response rating 0-100;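 as to Plant response rating (0 to 100), Ragweed: 0 is no effect and 100 is complete control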;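 as to Plant response rating, Ragweed: 0 is no effect and 100 is complete control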
Format in all cases: in vivo
[1] = test system: ragweed (common ragweed, Ambrosia elatior); details: Ambrosia artemisiifolia; for pest or weed control at 62 g/ha: 62 g ai/ha; for pest or weed control at 125 g/ha: 125 g ai/ha; for pest or weed control at 250 g/ha: 250 g ai/ha; for pest or weed control at 500 g/ha: 500 g ai/ha;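 as to all read-outs here: 0 is no effect and 100 is complete control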
How it was run: (§1)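 After treatment, pots stay in the greenhouse 13–15 days before each species is compared with untreated controls and given a 0–100 visual score. Preemergence seeds are in loam blended with sand; postemergence plants, 1–4 leaves, are in peat-based medium.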

[2] = test system: large (Lg) crabgrass (Digitaria sanguinalis); details: Digitaria sanguinalis; for pest or weed control at 62 g/ha: 62 g ai/ha; for pest or weed control at 125 g/ha: 125 g ai/ha; for pest or weed control at 250 g/ha: 250 g ai/ha; for pest or weed control at 500 g/ha: 500 g ai/ha
How it was run: as §1

[3] = test system: giant foxtail (Setaria faberii); details: Setaria faberi; for pest or weed control at 62 g/ha: 62 g ai/ha; for pest or weed control at 125 g/ha: 125 g ai/ha; for pest or weed control at 250 g/ha: 250 g ai/ha; for pest or weed control at 500 g/ha: 500 g ai/ha
How it was run: as §1

[4] = test system: winter wheat (Triticum aestivum); details: Triticum aestivum; for plant injury at 62 g/ha: 62 g ai/ha; for plant injury at 125 g/ha: 125 g ai/ha; for plant injury at 250 g/ha: 250 g ai/ha; for plant injury at 500 g/ha: 500 g ai/ha
How it was run: as §1

[5] = test system: galium (catchweed bedstraw, Galium aparine); details: Galium; for pest or weed control at 62 g/ha: 62 g ai/ha; for pest or weed control at 125 g/ha: 125 g ai/ha; for pest or weed control at 250 g/ha: 250 g ai/ha; for pest or weed control at 500 g/ha: 500 g ai/ha
How it was run: as §1

[6] = test system: yellow nutsedge (Cyperus esculentus); details: Cyperus; for pest or weed control at 62 g/ha: 62 g ai/ha; for pest or weed control at 125 g/ha: 125 g ai/ha; for pest or weed control at 250 g/ha: 250 g ai/ha; for pest or weed control at 500 g/ha: 500 g ai/ha
How it was run: as §1

corn (Zea mays) = details: Zea mays, post-emergence, Postemergence
How it was run: as §1

[7] = post-emergence, Postemergence, read-out: Plant response rating (0 to 100), Ragweed
[8] = post-emergence, Postemergence, scale 0 to 100
[9] = pre-emergence, Preemergence, read-out: Plant response rating, Ragweed
[10] = post-emergence, Postemergence, read-out: Plant response rating (0 to 100), Crabgrass, Large
[11] = pre-emergence, Preemergence, read-out: Plant response rating, Crabgrass, Large
[12] = post-emergence, Postemergence, read-out: Plant response rating (0 to 100), Foxtail, Giant
[13] = pre-emergence, Preemergence, read-out: Plant response rating, Foxtail, Giant
[14] = post-emergence, Postemergence, read-out: Plant response rating (0 to 100), Wheat
[15] = pre-emergence, Preemergence, read-out: Plant response rating, Wheat
[16] = post-emergence, Postemergence, read-out: Plant response rating (0 to 100), Galium
[17] = pre-emergence, Preemergence, read-out: Plant response rating, Galium
[18] = post-emergence, Postemergence, read-out: Plant response rating (0 to 100), Nutsedge, Yellow
[19] = pre-emergence, Preemergence, read-out: Plant response rating, Nutsedge, Yellow

## COCC(=O)n1cc(C(=O)c2ccccc2)c(-c2cc(Cl)cc(Cl)c2)n1 [Compound 16, 1-[4-benzoyl-3-(3,5-dichlorophenyl)-1H-pyrazol-1-yl]-2-methoxyethanone]
[1]; [7]
  pest or weed control at 62 g/ha: 60%
  pest or weed control at 125 g/ha: 85%
[1]; [8]
  pest or weed control at 250 g/ha: 85%
  pest or weed control at 500 g/ha: 95%
[1]; [9]
  pest or weed control at 62 g/ha: 55%
  pest or weed control at 125 g/ha: 85%
[1]; pre-emergence, Preemergence
  pest or weed control at 250 g/ha: 85%
  pest or weed control at 500 g/ha: 95%
[2]; [10]
  pest or weed control at 62 g/ha: 0%
  pest or weed control at 125 g/ha: 0%
[2]; [8]
  pest or weed control at 250 g/ha: 0%
  pest or weed control at 500 g/ha: 0%
[2]; [11]
  pest or weed control at 62 g/ha: 0%
  pest or weed control at 125 g/ha: 0%
[2]; pre-emergence, Preemergence
  pest or weed control at 250 g/ha: 0%
  pest or weed control at 500 g/ha: 0%
[3]; [12]
  pest or weed control at 62 g/ha: 0%
  pest or weed control at 125 g/ha: 0%
[3]; [8]
  pest or weed control at 250 g/ha: 0%
  pest or weed control at 500 g/ha: 10%
[3]; [13]
  pest or weed control at 62 g/ha: 0%
  pest or weed control at 125 g/ha: 0%
[3]; pre-emergence, Preemergence
  pest or weed control at 250 g/ha: 0%
  pest or weed control at 500 g/ha: 0%
[4]; [14]
  plant injury at 62 g/ha: 0%
  plant injury at 125 g/ha: 0%
[4]; [8]
  plant injury at 250 g/ha: 0%
  plant injury at 500 g/ha: 0%
[4]; [15]
  plant injury at 62 g/ha: 0%
  plant injury at 125 g/ha: 0%
[4]; pre-emergence, Preemergence
  plant injury at 250 g/ha: 0%
  plant injury at 500 g/ha: 0%
[5]; [16]
  pest or weed control at 62 g/ha: 0%
  pest or weed control at 125 g/ha: 20%
[5]; [8]
  pest or weed control at 250 g/ha: 20%
  pest or weed control at 500 g/ha: 50%
[5]; [17]
  pest or weed control at 62 g/ha: 0%
  pest or weed control at 125 g/ha: 0%
[5]; pre-emergence, Preemergence
  pest or weed control at 250 g/ha: 0%
  pest or weed control at 500 g/ha: 0%
[6]; [18]
  pest or weed control at 62 g/ha: 0%
  pest or weed control at 125 g/ha: 0%
[6]; [8]
  pest or weed control at 250 g/ha: 0%
  pest or weed control at 500 g/ha: 5%
[6]; [19]
  pest or weed control at 62 g/ha: 0%
  pest or weed control at 125 g/ha: 0%
[6]; pre-emergence, Preemergence
  pest or weed control at 250 g/ha: 0%
  pest or weed control at 500 g/ha: 0%
Corn (Zea mays); 62 g ai/ha
  plant injury at 62 g/ha: 0%
Corn (Zea mays); 125 g ai/ha
  plant injury at 125 g/ha: 0%
